Laboratory results published in article PMC8795197, “Safety and activity of WX-0593 (Iruplinalkib) in patients with ALK- or ROS1-rearranged advanced non-small cell lung cancer: a phase 1 dose-escalation and dose-expansion trial” (Signal Transduction and Targeted Therapy, 2022).
Where two headings read alike, the source gives them in different places.

Tests used:
[1] = Metabolite identification in plasma; assay type: in vivo, cynomolgus monkey; conditions: oral WX-0593
Source text: Under current experimental conditions, 1 metabolite in addition to the parent drug was detected in monkey plasma: a demethylation metabolite, M2 (MW = 554.23, P - CH2). Based on the % peak area from mass spectrometry, the drug exists primarily as the parent drug in the plasma of both male and female monkeys (99.06% in females and 99.47% in males). Metabolite M2 (0.94% in females and 0.53% in males) was a secondary metabolite. Based on the types of metabolites, it is speculated that WX-0593 is mainly metabolized through demethylation after oral administration in monkeys. There was no significant difference in metabolites between female and male monkeys.

[2] = Absorption study (IV and oral gavage PK); assay type: in vivo, Sprague Dawley (SD) rats; conditions: for bioavailability: read-out: absolute bioavailability
[3] = tested on: 27 non-target kinases (MAP4K4 ... INSR, EGFR wild type); test: Inhibitory study of 27 non-target kinases; assay type: biochemical; conditions: except for EGFR wild type
hERG = hERG (Homo sapiens, UniProt Q12809); test: Inhibition of hERG currents; assay type: cell-based; conditions: human; maximum tested dose 30 μM
Chain of hERG (Q12809 whole entry): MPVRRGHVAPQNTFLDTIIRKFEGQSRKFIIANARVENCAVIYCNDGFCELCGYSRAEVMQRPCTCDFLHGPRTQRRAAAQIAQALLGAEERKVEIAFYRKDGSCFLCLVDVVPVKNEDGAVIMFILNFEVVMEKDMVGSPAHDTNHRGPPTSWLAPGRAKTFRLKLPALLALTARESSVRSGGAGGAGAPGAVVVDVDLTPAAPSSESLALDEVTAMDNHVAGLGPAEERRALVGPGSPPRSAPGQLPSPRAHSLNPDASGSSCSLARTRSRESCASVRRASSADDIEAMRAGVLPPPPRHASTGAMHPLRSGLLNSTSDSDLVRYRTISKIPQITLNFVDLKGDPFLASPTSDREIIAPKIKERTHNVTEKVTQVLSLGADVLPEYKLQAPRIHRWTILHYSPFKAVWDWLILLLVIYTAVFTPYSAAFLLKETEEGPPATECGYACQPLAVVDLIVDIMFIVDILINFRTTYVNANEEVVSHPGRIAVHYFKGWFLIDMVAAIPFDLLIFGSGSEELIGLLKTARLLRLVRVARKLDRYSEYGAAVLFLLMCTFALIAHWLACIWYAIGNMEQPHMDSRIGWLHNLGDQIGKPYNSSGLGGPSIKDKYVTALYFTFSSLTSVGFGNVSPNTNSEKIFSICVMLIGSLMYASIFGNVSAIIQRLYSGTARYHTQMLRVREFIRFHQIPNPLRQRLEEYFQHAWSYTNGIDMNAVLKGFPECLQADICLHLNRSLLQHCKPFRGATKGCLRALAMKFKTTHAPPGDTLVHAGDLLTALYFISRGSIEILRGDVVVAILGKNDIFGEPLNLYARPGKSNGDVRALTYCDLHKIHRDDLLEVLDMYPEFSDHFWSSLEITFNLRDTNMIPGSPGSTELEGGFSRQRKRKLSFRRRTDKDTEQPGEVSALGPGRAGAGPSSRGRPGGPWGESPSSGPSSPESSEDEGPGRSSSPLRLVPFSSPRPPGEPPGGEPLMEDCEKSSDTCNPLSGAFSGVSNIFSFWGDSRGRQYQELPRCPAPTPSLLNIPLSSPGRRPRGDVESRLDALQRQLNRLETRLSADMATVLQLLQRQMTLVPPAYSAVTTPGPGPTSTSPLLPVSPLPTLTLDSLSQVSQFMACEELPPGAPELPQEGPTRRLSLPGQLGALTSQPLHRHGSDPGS
Description: (§1) […]. Therefore, WX-0593 has a low risk of cardiotoxicity. There were no effects on the CNS and respiratory system in rats at doses of 3, 10, and 30 mg/kg. However, WX-0593 10 and 30 mg/kg may result in benign respiratory rate and decreases in minute ventilation in female rats. There were no effects on the cardiovascular system, blood pressure, ECG parameters or waveforms in monkeys at doses of 5, 10, and 25 mg/kg; 10 and 25 mg/kg may result in mild decreases in heart rate (within the normal range) and PR prolongation and QTc shortening associated with bradycardia within the normal range (no statistical difference when compared to the control arm). No cardiovascular system adverse reactions related to the test product were found. The human equivalent dose (using 60 kg) is 3636 mg/person in CNS, 3636 mg/person in male respiratory system and 363.6 mg/person in female respiratory system, and 607 mg/person in cardiovascular system.

hERG currents = hERG currents (Homo sapiens, UniProt Q12809); test: Inhibition of hERG currents; assay type: cell-based
Chain of hERG currents (Q12809 whole entry): as above
Description: as §1

[4] = Excretion and mass balance after [14C]WX-0593; conditions: 0-168 hours
Karpas299 (NPM-ALK) = test: Cell proliferation inhibition assay; assay type: cell-based
[5] = Metabolic stability in liver microsomes; assay type: in vitro ADME; conditions: for half-life: read-out: elimination half-life
Source text: The objective of this study is to evaluate the metabolic stability of tested drug WX-0593 in CD-1 mice, SD rats, beagles, cynomolgus monkeys, and human liver microsomes.

op-kappa = op-kappa (Homo sapiens, UniProt P41145); test: GPCR antagonist screening assay; assay type: cell-based
Chain of op-kappa (P41145 whole entry): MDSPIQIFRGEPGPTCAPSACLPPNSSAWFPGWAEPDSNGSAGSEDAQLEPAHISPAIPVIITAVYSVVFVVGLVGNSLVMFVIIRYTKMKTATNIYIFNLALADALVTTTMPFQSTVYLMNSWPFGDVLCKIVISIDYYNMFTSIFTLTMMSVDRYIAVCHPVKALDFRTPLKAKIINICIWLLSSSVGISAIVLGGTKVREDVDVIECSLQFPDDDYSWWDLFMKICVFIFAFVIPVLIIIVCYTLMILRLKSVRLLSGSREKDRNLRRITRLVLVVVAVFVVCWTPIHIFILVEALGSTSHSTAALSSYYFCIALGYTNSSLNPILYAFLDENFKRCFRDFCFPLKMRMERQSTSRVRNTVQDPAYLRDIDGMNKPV

[6] = Sprague-Dawley, rat, SD rats liver microsomes
[7] = beagle, dog, beagles liver microsomes
[8] = cynomolgus monkey, cynomolgus monkeys liver microsomes
[9] = mouse, CD-1 mice liver microsomes

SMILES: COc1cc(N2CCC3(CCN(C)CC3)CC2)ccc1Nc1ncc(Cl)c(Nc2ccccc2P(C)(C)=O)n1 [WX-0593]
- % peak area from mass spectrometry in plasma ([1]; female monkeys): 99.06%
- % peak area from mass spectrometry in plasma ([1]; male monkeys): 99.47%
- Tmax ([2]; both sexes, Sprague-Dawley, rat, plasma, oral gavage 2–24 mg/kg): 2.08 to 2.75 h
- half-life ([2]; both sexes, Sprague-Dawley, rat, plasma, oral gavage 2–24 mg/kg, read-out: plasma terminal half-life): 3.14 to 3.7 h
- AUC(0-inf) ([2]; both sexes, Sprague-Dawley, rat, plasma, single IV 2 mg/kg): 1560 ± 348 ng·h/mL
- Vd ([2]; both sexes, Sprague-Dawley, rat, plasma, single IV 2 mg/kg, read-out: apparent volume of distribution (Vdss)): 5.23 ± 0.942 L/kg
- MRT inf ([2]; both sexes, Sprague-Dawley, rat, plasma, single IV 2 mg/kg, read-out: mean residence time (MRT0-inf)): 3.96 ± 0.355 h
- clearance ([2]; both sexes, Sprague-Dawley, rat, plasma, single IV 2 mg/kg, read-out: plasma clearance (CL)): 22.2 ± 4.67 mL/min/kg
- half-life ([2]; both sexes, Sprague-Dawley, rat, plasma, single IV 2 mg/kg, read-out: plasma elimination half-life T1/2 (converted)): 3.58 ± 0.652 h
- bioavailability ([2]; both sexes, Sprague-Dawley, rat, plasma, single oral gavage 2 mg/kg): 36.9%
- bioavailability ([2]; both sexes, Sprague-Dawley, rat, plasma, single oral gavage 24 mg/kg): 69.6%
- drug accumulation ([2]; oral 8 mg/kg, 7 consecutive days): no significant drug accumulation
- CL as % of hepatic blood flow in rats ([2]; single IV 2 mg/kg): 40.3%
- absolute bioavailability ([2]; single oral gavage 8 mg/kg): 64.7%
- inhibitory activity against non-target kinases [3]: no significant inhibitory activity
- inhibition at 30 μM (hERG): 58.1%
- IC50 (hERG currents): 20 µM
- hERG slope (hERG currents): 0.95
- dose excreted in feces [4]: 85.84%
- dose excreted in urine [4]: 9.36%
- dose in cage rinses and washes [4]: 1.51%
- mean radioactivity recovery rate ([4]; single oral [14C]WX-0593 8 mg/kg): 96.71%
- growth inhibition (Karpas299 (NPM-ALK)): significantly inhibits the growth
- CLint scaled [5, 6]: < 17.3 mL/min/kg
- half-life [5, 6]: > 2.42 h
- CLint scaled [5, 7]: 14.7 mL/min/kg
- half-life [5, 7]: 2.27 h
- CLint scaled [5, 8]: < 13 mL/min/kg
- half-life [5, 8]: > 2.42 h
- CLint scaled ([5]; human liver microsomes): < 9.5 mL/min/kg
- half-life ([5]; human liver microsomes): > 2.42 h
- CLint scaled [5, 9]: 52.3 mL/min/kg
- half-life [5, 9]: 1.75 h
- IC50 (op-kappa): > 10 µM
